In patent US20030004172A1, “Fused pyrimidinone matrix metalloproteinase inhibitors” (priority 2001, published 2003):

biological target: MMP-13CD (catalytic domain of collagenase-3) (Homo sapiens, UniProt P45452); assay: Thiopeptolide substrate hydrolysis inhibition assay, MMP-13CD; format: biochemical; conditions: Table I; thiopeptolide substrate, HEPES pH 7.0, 22° C.; read-out: MMP-13CD IC50
Description: Thiopeptolide substrates show virtually no decomposition or hydrolysis at or below neutral pH in the absence of a matrix metalloproteinase enzyme.

| Structure (SMILES) | IC50 [µM] |
| --- | --- |
| CCOCCOCCOC(=O)c1cc2c(=O)n(Cc3ccccc3)c(=O)n(C)c2s1 [Example 177, 3-Benzyl-1-methyl-2,4-dioxo-1,2,3,4-tetrahydro-thieno[2,3-d]pyrimidine-6-carboxylic acid 2-(2-ethoxy-ethoxy)-ethyl ester] | > 100 |
| Cn1c(=O)n(Cc2ccccc2)c(=O)c2cc(C(=O)OCC3CCCCO3)sc21 (stereo not drawn) [Example 178, 3-Benzyl-1-methyl-2,4-dioxo-1,2,3,4-tetrahydro-thieno[2,3-d]pyrimidine-6-carboxylic acid tetrahydro-pyran-2-ylmethyl ester] | > 100 |
| Cn1c(=O)n(Cc2ccccc2)c(=O)c2cc(C(=O)OCc3ccc([N+](=O)[O-])cc3)sc21 [Example 179, 3-Benzyl-1-methyl-2,4-dioxo-1,2,3,4-tetrahydro-thieno[2,3-d]pyrimidine-6-carboxylic acid 4-nitro-benzyl ester] | 0.25 |
| CCCCCOC(=O)c1cc2c(=O)n(Cc3ccccc3)c(=O)n(C)c2s1 [Example 180, 3-Benzyl-1-methyl-2,4-dioxo-1,2,3,4-tetrahydro-thieno[2,3-d]pyrimidine-6-carboxylic acid pentyl ester] | 30 |
| Cn1c(=O)n(Cc2ccccc2)c(=O)c2cc(C(=O)OCCCc3ccccc3)sc21 [Example 181, 3-Benzyl-1-methyl-2,4-dioxo-1,2,3,4-tetrahydro-thieno[2,3-d]pyrimidine-6-carboxylic acid 3-phenyl-propyl ester] | > 100 |
| Cn1c(=O)n(Cc2ccccc2)c(=O)c2cc(C(=O)OCc3cccc(Oc4ccccc4)c3)sc21 [Example 182, 3-Benzyl-1-methyl-2,4-dioxo-1,2,3,4-tetrahydro-thieno[2,3-d]pyrimidine-6-carboxylic acid 3-phenoxy-benzyl ester] | 8.6 |
| COc1cc(COC(=O)c2cc3c(=O)n(Cc4ccccc4)c(=O)n(C)c3s2)cc(OC)c1 [Example 183, 3-Benzyl-1-methyl-2,4-dioxo-1,2,3,4-tetrahydro-thieno[2,3-d]pyrimidine-6-carboxylic acid 3,5-dimethoxy-benzyl ester] | 30 |
| CC(C)CCOC(=O)c1cc2c(=O)n(Cc3ccccc3)c(=O)n(C)c2s1 [Example 184, 3-Benzyl-1-methyl-2,4-dioxo-1,2,3,4-tetrahydro-thieno[2,2-d]pyrimidine-6-caboxylic acid 3-methyl-butyl ester] | > 100 |
| Cn1c(=O)n(Cc2ccccc2)c(=O)c2cc(C(=O)OCc3ccc(Cl)cc3)sc21 [Example 185, 3-Benzyl-1-methyl-2,4-dioxo-1,2,3,4-tetrahydro-thieno[2,3-d]pyrimidine-6-carboxylic acid 4-chloro-benzyl ester] | 0.014 |
| CCN1CCCC(OC(=O)c2cc3c(=O)n(Cc4ccccc4)c(=O)n(C)c3s2)C1 (stereo not drawn) [Example 186, 3-Benzyl-1-methyl-2,4-dioxo-1.2.3.4-tetrahydro-thieno[2,3-d]pyrimidine-6-carboxylic acid 1-ethyl-piperidin-3-yl ester] | 4.5 |
| Cn1c(=O)n(Cc2ccccc2)c(=O)c2cc(C(=O)OCc3ccc(OCc4ccccc4)cc3)sc21 [Example 187, 3-Benzyl-1-methyl-2,4-dioxo-1,2,3,4-tetrahydro-thieno[2,3-d]pyrimidine-6-carboxylic acid 4-benzyloxy-benzyl ester] | > 100 |
| CC(C)COC(=O)c1cc2c(=O)n(Cc3ccccc3)c(=O)n(C)c2s1 [Example 188, 3-Benzyl-1-methyl-2,4-dioxo-1,2,3,4-tetrahydro-thieno[2,3-d]pyrimidine-6-carboxylic acid isobutyl ester] | 19 |
| COc1ccc(CCCOC(=O)c2cc3c(=O)n(Cc4ccccc4)c(=O)n(C)c3s2)cc1 [Example 189, 3-Benzyl-1-methyl-2,4-dioxo-1,2,3,4-tetrahydro-thieno[2,3-d]pyrimidine-6-carboxylic acid 3-(4-methoxy-phenyl)-propyl ester] | 4.9 |
| Cn1c(=O)n(Cc2ccccc2)c(=O)c2cc(C(=O)OCc3c(F)cccc3Cl)sc21 [Example 190, 3-Benzyl-1-methyl-2,4-dioxo-1,2,3,4-tetrahydro-thieno[2,3-d]pyrimidine-6-carboxylic acid 2-chloro-6-fluoro-benzyl ester] | > 100 |
| Cn1c(=O)n(Cc2ccccc2)c(=O)c2cc(C(=O)OC3CCOC3)sc21 (stereo not drawn) [Example 191, 3-Benzyl-1-methyl-2,4-dioxo-1,2,3,4-tetrahydro-thieno[2,3-d]pyrimidine-6-carboxylic acid tetrahydro-furan-3-yl ester] | 2.3 |
| COc1cccc(COC(=O)c2cc3c(=O)n(Cc4ccccc4)c(=O)n(C)c3s2)c1 [Example 192, 3-Benzyl-1-methyl-2,4-dioxo-1,2,3,4-tetrahydro-thieno[2,3-d]pyrimidine-6-carboxylic acid 3-methoxy-benzyl ester] | 0.0034 |
| COc1cccc(COC(=O)c2cc3c(=O)n(Cc4ccccc4)c(=O)n(C)c3s2)c1 [Example 193, 3-Benzyl-1-methyl-2,4-dioxo-1,2,3,4-tetrahydro-thieno[2,3-d]pyrimidine-6-carboxylic acid 3-methoxy-benzyl ester] | 0.0034 |

| Structure (SMILES) | IC50 [µM] |
| --- | --- |
| Cn1c(=O)n(Cc2ccccc2)c(=O)c2cc(C(=O)OCCCc3ccccn3)sc21 [Example 194, 3-Benzyl-1-methyl-2,4-dioxo-1,2,3,4-tetrahydro-thieno[2,3-d]pyrimidine-6-carboxylic acid 3-pyridin-2-yl-propyl ester] | 88 |
| Cn1c(=O)n(Cc2ccccc2)c(=O)c2cc(C(=O)OCCC3CCCCN3)sc21 (stereo not drawn) [Example 195, 3-Benzyl-1-methyl-2,4-dioxo-1,2,3,4-tetrahydro-thieno[2,3-d]pyrimidine-6-carboxylic acid 2-piperidin-2-yl-ethyl ester] | > 100 |
| COc1ccc(Br)cc1COC(=O)c1cc2c(=O)n(Cc3ccccc3)c(=O)n(C)c2s1 [Example 196, 3-Benzyl-1-methyl-2,4-dioxo-1,2,3,4-tetrahydro-thieno[2,3-d]pyrimidine-6-carboxylic acid 5-bromo-2-methoxy-benzyl ester] | 30 |
| Cn1c(=O)n(Cc2ccccc2)c(=O)c2cc(C(=O)OCC3CCCCCC3)sc21 [Example 197, 3-Benzyl-1-methyl-2,4-dioxo-1,2,3,4-tetrahydro-thieno[2,3-d]pyrimidine-6-carboxylic acid cycloheptylmethyl ester] | > 100 |
| Cn1c(=O)n(Cc2ccccc2)c(=O)c2cc(C(=O)OC3CCCc4ccccc43)sc21 (stereo not drawn) [Example 198, 3-Benzyl-1-methyl-2,4-dioxo-1,2,3,4-tetrahydro-thieno[2,3-d]pyrimidine-6-carboxylic acid 1,2,3,4-tetrahydro-naphthalen-1-yl ester] | > 100 |
| Cn1c(=O)n(Cc2ccccc2)c(=O)c2cc(C(=O)OCC3CCCN3)sc21 (stereo not drawn) [Example 199, 3-Benzyl-1-methyl-2,4-dioxo-1,2,3,4-tetrahydro-thieno[2,3-d]pyrimidine-6-carboxylic acid pyrrolidin-2-ylmethyl ester] | 17 |
| Cn1c(=O)n(Cc2ccccc2)c(=O)c2cc(C(=O)OCc3cccc(Cl)c3)sc21 [Example 200, 3-Benzyl-1-methyl-2,4-dioxo-1,2,3,4-tetrahydro-thieno[2,3-d]pyrimidine-6-carboxylic acid 3-chloro-benzyl ester] | 0.067 |
| Cn1c(=O)n(Cc2ccccc2)c(=O)c2cc(C(=O)OCc3ccc4c(c3)OCO4)sc21 [Example 201, 3-Benzyl-1-methyl-2,4-dioxo-1,2,3,4-tetrahydro-thieno[2,3-d]pyrimidine-6-carboxylic acid 1,3-benzodioxol-5-ylmethyl ester] | 0.3 |
| CSc1ccc(COC(=O)c2cc3c(=O)n(Cc4ccccc4)c(=O)n(C)c3s2)cc1 [Example 202, 3-Benzyl-1-methyl-2,4-dioxo-1,2,3,4-tetrahydro-thieno[2,3-d]pyrimidine-6-carboxylic acid 4-methylsulfanyl-benzyl ester] | 0.36 |
| CSc1ccc(COC(=O)c2cc3c(=O)n(Cc4ccccc4)c(=O)n(C)c3s2)cc1 [Example 203, 3-Benzyl-1-methyl-2,4-dioxo-1,2,3,4-tetrahydro-thieno[2,3-d]pyrimidine-6-carboxylic acid 4-methylsulfanyl-benzyl ester] | 0.36 |
| Cn1c(=O)n(Cc2ccccc2)c(=O)c2cc(C(=O)OCc3ccc(Cl)c(Cl)c3)sc21 [Example 204, 3-Benzyl-1-methyl-2,4-dioxo-1,2,3,4-tetrahydro-thieno[2,3-d]pyrimidine-6-carboxylic acid 3,4-dichloro-benzyl ester] | 0.072 |
| Cn1c(=O)n(Cc2ccccc2)c(=O)c2cc(C(=O)OCCC(c3ccccc3)c3ccccc3)sc21 [Example 205, 3-Benzyl-1-methyl-2,4-dioxo-1,2,3,4-tetrahydro-thieno[2,3-d]pyrimidine-6-carboxylic acid 3,3-diphenyl-propyl ester] | 19 |
| Cn1c(=O)n(Cc2ccccc2)c(=O)c2cc(C(=O)OCCc3ccccn3)sc21 [Example 206, 3-Benzyl-1-methyl-2,4-dioxo-1,2,3,4-tetrahydro-thieno[2,3-d]pyrimidine-6-carboxylic acid 2-pyridin-2-yl-ethyl ester] | 15 |
| Cn1c(=O)n(Cc2ccccc2)c(=O)c2cc(C(=O)OCc3ccoc3)sc21 [Example 207, 3-Benzyl-1-methyl-2,4-dioxo-1,2,3,4-tetrahydro-thieno[2,3-d]pyrimidine-6-carboxylic acid furan-3-ylmethyl ester] | 0.2 |
| C=CCCOC(=O)c1cc2c(=O)n(Cc3ccccc3)c(=O)n(C)c2s1 [Example 208, 3-Benzyl-1-methyl-2,4-dioxo-1,2,3,4-tetrahydro-thieno[2,3-d]pyrimidine-6-carboxylic acid but-3-enyl ester] | 0.1 |
| Cn1c(=O)n(Cc2ccccc2)c(=O)c2cc(C(=O)OCCC#N)sc21 [Example 209, 3-Benzyl-1-methyl-2,4-dioxo-1,2,3,4-tetrahydro-thieno[2,3-d]pyrimidine-6-carboxylic acid 2-cyano-ethyl ester] | > 100 |
